In PubChem BioAssay (NCI):
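Briefly, cells in 96-well plates were exposed to five compound concentrations for 48 h, and endpoints were estimated by linear interpolation. GI50 marks 50% less growth. TGI: total growth inhibition.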

Experiments:
Test in all cases: NCI anticancer screen, dose series, 48 h
NCI/ADR-RES ovarian = tested on: NCI/ADR-RES ovarian
SK-MEL-5 melanoma = tested on: SK-MEL-5 melanoma
SNB-19 CNS = tested on: SNB-19 CNS
IGROV1 ovarian = tested on: IGROV1 ovarian
NCI-H522 lung = tested on: NCI-H522 lung
KM12 colon = tested on: KM12 colon
HT29 colon = tested on: HT29 colon
SF-295 CNS = tested on: SF-295 CNS
BT-549 breast = tested on: BT-549 breast
HCC-2998 colon = tested on: HCC-2998 colon
SK-MEL-2 melanoma = tested on: SK-MEL-2 melanoma
MDA-MB-231 breast = tested on: MDA-MB-231 breast
A498 renal = tested on: A498 renal
LOX IMVI melanoma = tested on: LOX IMVI melanoma
UACC-257 melanoma = tested on: UACC-257 melanoma
CAKI-1 renal = tested on: CAKI-1 renal
OVCAR-8 ovarian = tested on: OVCAR-8 ovarian
MDA-MB-435 = tested on: MDA-MB-435
NCI-H23 lung = tested on: NCI-H23 lung
OVCAR-5 ovarian = tested on: OVCAR-5 ovarian
M14 melanoma = tested on: M14 melanoma
COLO 205 colon = tested on: COLO 205 colon
HS 578T breast = tested on: HS 578T breast
MOLT-4 leukemia = tested on: MOLT-4 leukemia
786-0 renal = tested on: 786-0 renal
ACHN renal = tested on: ACHN renal
SN12C renal = tested on: SN12C renal

With `N#CC1=C(N)Oc2c(sc3c(Br)cccc23)C1c1ccc(F)cc1` (centres undefined) the GI50 (NCI/ADR-RES ovarian) was 215 nM, the TGI (NCI/ADR-RES ovarian) was 2630 nM and the GI50 (SK-MEL-5 melanoma) was 371 nM. For the same molecule, the TGI (SK-MEL-5 melanoma) was 12900 nM, the GI50 (SNB-19 CNS) was 719 nM and the TGI (SNB-19 CNS) was 25000 nM. The GI50 (IGROV1 ovarian) was 605 nM, the TGI (IGROV1 ovarian) was 21000 nM and the GI50 (NCI-H522 lung) was 83.8 nM. The TGI (NCI-H522 lung) was 13700 nM, the GI50 (KM12 colon) was 361 nM and the TGI (KM12 colon) was 15200 nM. It also gave a GI50 (HT29 colon) of 367 nM, a TGI (HT29 colon) of 10300 nM and a GI50 (SF-295 CNS) of 234 nM. It also gave a TGI (SF-295 CNS) of 815 nM, a GI50 (BT-549 breast) of 1010 nM and a TGI (BT-549 breast) of 19300 nM. The GI50 (HCC-2998 colon) was 797 nM, the TGI (HCC-2998 colon) was 10100 nM and the GI50 (SK-MEL-2 melanoma) was 487 nM. For the same molecule, the TGI (SK-MEL-2 melanoma) was 31100 nM, the GI50 (MDA-MB-231 breast) was 824 nM and the TGI (MDA-MB-231 breast) was 15900 nM. It also gave a GI50 (A498 renal) of 314 nM, a TGI (A498 renal) of 16700 nM and a GI50 (LOX IMVI melanoma) of 695 nM. For the same molecule, the TGI (LOX IMVI melanoma) was 15200 nM, the GI50 (UACC-257 melanoma) was 13000 nM and the TGI (UACC-257 melanoma) was 42700 nM. For the same molecule, the GI50 (CAKI-1 renal) was 437 nM, the TGI (CAKI-1 renal) was 31900 nM and the GI50 (OVCAR-8 ovarian) was 760 nM. It also gave a TGI (OVCAR-8 ovarian) of 24400 nM, a GI50 (MDA-MB-435) of 69.1 nM and a TGI (MDA-MB-435) of 11200 nM. The GI50 (NCI-H23 lung) was 416 nM, the TGI (NCI-H23 lung) was 17900 nM and the GI50 (OVCAR-5 ovarian) was 1770 nM. It also gave a TGI (OVCAR-5 ovarian) of 19600 nM, a GI50 (M14 melanoma) of 300 nM and a TGI (M14 melanoma) of 14900 nM. It also gave a GI50 (COLO 205 colon) of 366 nM, a TGI (COLO 205 colon) of 1690 nM and a GI50 (HS 578T breast) of 851 nM. It also gave a TGI (HS 578T breast) of 52700 nM, a GI50 (MOLT-4 leukemia) of 473 nM and a TGI (MOLT-4 leukemia) of 14200 nM. It also gave a GI50 (786-0 renal) of 525 nM, a TGI (786-0 renal) of 14200 nM and a GI50 (ACHN renal) of 682 nM. It also gave a TGI (ACHN renal) of 17000 nM, a GI50 (SN12C renal) of 1220 nM and a TGI (SN12C renal) of 18700 nM.
